According to patent US20250161338A1, “Compounds for Anti-aging Intervention” (AGENCY FOR SCIENCE, TECHNOLOGY AND RESEARCH, priority 2022, published 2025):

What was measured:
[1] = system: prototrophic yeast strain (CEN.PK113-7D); assay: Propidium iodide fluorescence-based CLS method in yeast (incl. high-throughput screening); format: cell-based, Saccharomyces cerevisiae;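 as to PI intensity: untreated reference is eight DMSO and water control wells per plate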
Outline: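 CEN.PK113-7D aged in SD medium at 30 °C with compounds (rapamycin 0–10 nM; sugars 0–8 mM; screen at single concentrations). At each age point cells were stained with 5 μg/mL PI for 15 min; fluorescence was normalized to OD600, background-subtracted, and survival scaled against boiled-cell control.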

[2] = system: CEN.PK113-7D snflΔ deletion strain; assay: Growth sensitivity of SNFl gene deletion strain; format: cell-based, Saccharomyces cerevisiae; details: different concentrations; compared to wild-type strain
Description: The prototrophic wild-type Saccharomyces cerevisiae CEN.PK113-7D yeast strain genetic background (Euroscarf, Köhlerweg, Oberursel, Germany), and the Saccharomyces cerevisiae BY4743 strain (Euroscarf, Köhlerweg, Oberursel, Germany) were used. The CEN.PK113-7D snflΔ deletion strain was constructed. The standard rich Yeast-Extract Peptone Dextrose (YPD) medium (1% w/v Bacto yeast extract, 2% w/v Bacto peptone, and 2% w/v glucose) (BD, Franklin Lakes, New Jersey, United States of America), YPD agar (2.5% w/v Bacto agar) (BD, Franklin Lakes, New Jersey, United States of America), and synthetic defined (SD) medium (BD, Franklin Lakes, New Jersey, United States of America) used here contained 6.7 g/L Difco™ Yeast Nitrogen Base (without amino acids and with ammonium sulfate) (BD, Franklin Lakes, New Jersey, United States) and 2% w/v glucose. Rapamycin (Enzo Life Sciences, Farmingdale, New York, United States) stock solution was prepared in dimethyl sulfoxide (DMSO) (Sigma-Aldrich, St. Louis, Missouri, United States of America). […]

Compound: OC[C@H]1O[C@H](CO)[C@@H](O)[C@@H]1O [2,5-AM, 2,5-anhydro-D-mannitol]
- survival of aged cells ([1]; 4 mM and 8 mM, Day 4, without compound approx. 50%): approximately 80%
- survival of aged cells ([1]; Day 7, without compound less than 20%): approximately 75%
- Yeast CLS increase ([1]; concentration tested 300 μg/mL, Yes/No call of the screen): Yes
- PI intensity ([1]; concentration tested 300 μg/mL, solvent water, age point Day 7): 36,240.0
- growth of snflΔ deletion strain [2]: inhibited the growth of snflΔ deletion strain compared to wild-type strain
